Laboratory results as given in patent publication US20250074911A1, “MACROCYCLIC BTK INHIBITORS” (Crossfire Oncology Holding B.V., priority 2021, published 2025).

Tests used:
[1] = biological target: full-length wt-BTK enzyme (Homo sapiens (Human), UniProt Q06187); assay: Biochemical kinase assay wt-BTK (IMAP)
Method: Biochemical kinase assay wt-BTK To determine the inhibitory activity of compounds on wt-BTK enzyme activity, the IMAP® assay (Molecular Devices) was used. […] After pre-incubation of 1 hour in the dark at room temperature, fluorescein-labeled MBP-derived substrate peptide (Molecular Devices, cat. no. RP 7123) was added, followed by ATP to start the reaction. Final enzyme concentration was 1.2 nM, final substrate concentration 50 nM, and final ATP concentration was 4 μM. The reaction was allowed to proceed for 2 hours at room temperature in the dark. The reaction was stopped by quenching with IMAP progressive binding solution according to the protocol of the manufacturer (Molecular Devices). Fluorescein polarization was measured on an Envision multimode reader (Perkin Elmer, Waltham, MA, U.S.A.). […] Results of the wt-BTK binding affinity are shown in Table 1 below. • IC50 wt-BTK: […]

[2] = biological target: full-length BTK C481S enzyme (Homo sapiens (Human), UniProt Q06187, C481S); assay: Biochemical kinase assay BTK C481S (IMAP)
Method: Biochemical kinase assay BTK […] To determine the inhibitory activity of compounds on BTK C481S enzyme activity, the IMAP® assay (Molecular Devices) was used. […] After pre-incubation of 1 hour in the dark at room temperature, fluorescein-labeled MBP-derived substrate peptide (Molecular Devices, cat. no. RP 7123) was added, followed by ATP to start the reaction. Final enzyme concentration was 1.2 nM final substrate concentration 50 nM, and final ATP concentration was 7 μM. The reaction was allowed to proceed for 2 hours at room temperature in the dark. The reaction was stopped by quenching with IMAP progressive binding solution according to the protocol of the manufacturer (Molecular Devices). Fluorescein polarization was measured on an Envision multimode reader (Perkin Elmer, Waltham, MA, U.S.A.). IC50 were calculated using XLfitTM5 software (ID Business Solutions, Ltd., Surrey, U.K.). Results of the BTK […] binding affinity are shown in Table 1 below. • IC50 BTK […]: […]

[3] = system: wt-REC-1 mantle cell lymphoma cells; assay: Cell proliferation assay wt-REC-1 (ATPlite, 72 hours); assay type: cell-based; conditions: 72 h; read-out: IC50 wt-REC-1
Method: Results of the BTK […] binding affinity are shown in Table 1 below. • IC50 BTK […]: […] wt-REC-1 mantle cell lymphoma cells were purchased from American Type Culture Collection via Synthego Corporation (cat. no. CRL-3004, ATCC). […] Luminescence was recorded on an Envision multimode reader. The cell signal at the start of incubation was recorded separately in order to distinguish between cell population growth and cell death. In addition, maximum growth was determined by incubation of a duplicate without compound in the presence of 0.3% DMSO. Percentage growth was used as the main y-axis signal. IC50s were fitted by non-linear regression using IDBS XLfitTM5 using a 4-parameter logistic curve, yielding a maximum signal, minimum signal, hill-parameter and IC50. Results of the wt-REC-1 proliferation are shown in Table 1 below. • IC50 wt-REC-1: […]

REC-1 T474I cell lines = assay: Cell proliferation assay REC-1 BTK T474I knock-in cells (ATPlite, 72 hours); assay type: cell-based; conditions: Homo sapiens, Rec1; 72 hours; read-out: IC50 REC-1 T474I
Method: Cell proliferation assay Generation of BTK […] knock-in cell lines wt-REC-1 cell lines expressing mutant BTK were created at Synthego Corporation. Cell lines expressing BTK […] was generated via CRISPR/Cas9. Monoclonal REC-1 […] cell lines were obtained by single cell cloning. The mutation status of all cell lines was confirmed via sequencing. […] Luminescence was recorded on an Envision multimode reader. The cell signal at the start of incubation was recorded separately in order to distinguish between cell population growth and cell death. In addition, maximum growth was determined by incubation of a duplicate without compound in the presence of 0.3% DMSO. Percentage growth was used as the main y-axis signal.

[4] = system: wt-TMD8 diffuse large B-cell lymphoma cells; assay: Cell proliferation assay wt-TMD8 (ATPlite, 120 hours); assay type: cell-based; conditions: B-cell; wt-TMD8 cells, 120 hours, ATPlite; read-out: IC50 wt-TMD8
Method: Cell proliferation assay wt-TMD8 diffuse large B-cell lymphoma cells were purchased from Tokyo Medical and Dental University and cultured in RPMI-1640 cell culture medium (cat. no. 61870036, Life Technologies), supplemented with 10% (v/v) heat-inactivated fetal bovine calf serum and 1% penicillin/[…]. 1600 cells per well (in 45 μl) were seeded in a white 384-well culture plate (cat. no. 781080, Greiner Bio-One) and allowed to rest for at least 5 hours at 37° C., 95% humidity, and 5% CO2. 5 μl compound solution was added to the cells and incubation was continued for 120 hours (5 days), followed by addition of 24 μl ATPlite 1Step™ (PerkinElmer, Groningen, The Netherlands) solution was added to each well. Luminescence was recorded on an Envision multimode reader. The cell signal at the start of incubation was recorded separately in order to distinguish between cell population growth and cell death. In addition, maximum growth was determined by incubation of a duplicate without compound in the presence of 0.3% DMSO. Percentage growth was used as the main y-axis signal.

Sequence of full-length BTK C481S enzyme (Q06187 whole entry C481S): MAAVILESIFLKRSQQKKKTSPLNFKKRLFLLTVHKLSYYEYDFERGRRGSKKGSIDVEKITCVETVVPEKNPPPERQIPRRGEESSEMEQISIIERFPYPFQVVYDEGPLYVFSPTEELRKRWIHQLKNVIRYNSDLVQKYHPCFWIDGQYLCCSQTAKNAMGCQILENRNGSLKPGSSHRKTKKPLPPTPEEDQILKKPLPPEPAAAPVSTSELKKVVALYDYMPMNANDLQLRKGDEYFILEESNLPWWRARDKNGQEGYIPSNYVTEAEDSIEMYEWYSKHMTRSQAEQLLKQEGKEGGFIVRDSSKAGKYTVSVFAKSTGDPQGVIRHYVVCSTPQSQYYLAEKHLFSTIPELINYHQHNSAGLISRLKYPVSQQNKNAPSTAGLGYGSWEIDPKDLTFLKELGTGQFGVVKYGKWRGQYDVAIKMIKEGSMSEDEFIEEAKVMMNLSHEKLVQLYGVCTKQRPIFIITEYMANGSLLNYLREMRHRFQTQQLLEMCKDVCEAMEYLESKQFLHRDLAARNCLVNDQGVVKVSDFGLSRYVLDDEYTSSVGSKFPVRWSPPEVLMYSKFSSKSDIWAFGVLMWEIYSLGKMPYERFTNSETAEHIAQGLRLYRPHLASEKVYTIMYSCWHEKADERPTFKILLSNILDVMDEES
Sequence of full-length wt-BTK enzyme (Q06187 whole entry): as the sequence (Q06187 whole entry C481S) above, with S481C counted along it

Compound	IC50 [1]	IC50 [2]	IC50 [3]	IC50 [4]	IC50 (REC-1 T474I cell lines)
Nc1ncc2c3c1c(-c1ccc(C(=O)Nc4cc(C(F)(F)F)ccn4)cc1)nn3[C@@H]1CCC[C@H](C1)NC(=O)CCCCC/C=C/2 [Example 37]	< 5 nM	< 5 nM	< 100 nM	< 100 nM	< 100 nM
Nc1ncc2c3c1c(-c1ccc(C(=O)Nc4cc(C(F)(F)F)ccn4)cc1)nn3[C@@H]1CCCN(C1)C(=O)CCCC/C=C/2 [Example 77]	5 to 50 nM	5 to 50 nM	100 to 1000 nM	100 to 1000 nM	500 to 10000 nM
Nc1ncc2c3c1c(-c1ccc(C(=O)Nc4cc(C(F)(F)F)ccn4)cc1)nn3[C@@H]1CCC[C@H](C1)NC(=O)COC/C=C\C2 [Example 97b]	5 to 50 nM	< 5 nM	100 to 1000 nM	< 100 nM	500 to 10000 nM
Nc1ncc2c3c1c(-c1ccc(C(=O)Nc4cc(F)ccn4)cc1)nn3[C@@H]1CCC[C@H](C1)NC(=O)CCCCC/C=C/2 [Example 196]	< 5 nM	< 5 nM	< 100 nM	< 100 nM	< 100 nM
C[C@@H]1CCn2nc(-c3ccc(C(=O)Nc4cc(C(F)(F)F)ccn4)cc3)c3c(N)ncc(c32)/C=C/CN2CC[C@H](C2)C(=O)N1 [Example 148]	< 5 nM	< 5 nM	100 to 1000 nM	< 100 nM	500 to 10000 nM
C[C@@H]1CC(=O)N[C@@H]2CCC[C@H](C2)n2nc(-c3ccc(C(=O)Nc4cc(F)ccn4)cc3)c3c(N)ncc(c32)/C=C/CCN1 [Example 191]	< 5 nM	< 5 nM	< 100 nM	< 100 nM	< 100 nM
Nc1ncc2c3c1c(-c1ccc(C(=O)Nc4cc(C(F)(F)F)ccn4)cc1)nn3[C@@H]1CCC[C@H](C1)NC(=O)CCC[C@H](O)/C=C/2 [Example 13]	< 5 nM	< 5 nM	100 to 1000 nM	< 100 nM	500 to 10000 nM
CN1CC/C=C/c2cnc(N)c3c(-c4ccc(C(=O)Nc5cc(C(F)(F)F)ccn5)cc4)nn(c23)[C@@H]2CCC[C@H](C2)NC(=O)CC1 [Example 38]	< 5 nM	< 5 nM	< 100 nM	< 100 nM	< 100 nM
CN1CCC/C=C/c2cnc(N)c3c(-c4ccc(C(=O)Nc5cc(C(F)(F)F)ccn5)cc4)nn(c23)[C@@H]2CCC[C@H](C2)NC(=O)C1 [Example 41]	< 5 nM	< 5 nM	< 100 nM	< 100 nM	< 100 nM
Nc1ncc2c3c1c(-c1ccc(C(=O)Nc4cc(C(F)(F)F)ccn4)cc1)nn3[C@@H]1CCC[C@H](C1)NC(=O)CCC[C@@H](O)/C=C/2 [Example 14]	< 5 nM	< 5 nM	100 to 1000 nM	< 100 nM	500 to 10000 nM
CN1CC/C=C/c2cnc(N)c3c(-c4ccc(C(=O)Nc5cc(C(F)(F)F)ccn5)cc4)nn(c23)[C@@H]2CCC[C@H](C2)NC(=O)C1 [Example 30]	< 5 nM	< 5 nM	< 100 nM	< 100 nM	100 to 500 nM
C[C@@H]1CNC(=O)[C@@H]2CCC[C@H](C2)n2nc(-c3ccc(C(=O)Nc4cc(C(F)(F)F)ccn4)cc3)c3c(N)ncc(c32)/C=C/CN1C [Example 154]	< 5 nM	< 5 nM	1000 to 10000 nM	< 100 nM	500 to 10000 nM
Nc1ncc2c3c1c(-c1ccc(C(=O)Nc4cc(C(F)(F)F)ccn4)cc1)nn3[C@@H]1CCC[C@H](C1)C(=O)NCC/C=C/2 [Example 4]	5 to 50 nM	5 to 50 nM	100 to 1000 nM	100 to 1000 nM	500 to 10000 nM

Second part, led by results:

IC50 [1]	IC50 [2]	IC50 [3]	IC50 [4]	Compound	IC50 (REC-1 T474I cell lines)
< 5 nM	< 5 nM	100 to 1000 nM	< 100 nM	Nc1ncc2c3c1c(-c1ccc(C(=O)Nc4cc(C(F)(F)F)ccn4)cc1)nn3[C@@H]1CCCN(C1)C(=O)CCCCC/C=C/2 [Example 78]	500 to 10000 nM
< 5 nM	< 5 nM	100 to 1000 nM	< 100 nM	C[C@@H]1CCn2nc(-c3ccc(C(=O)Nc4cc(C(F)(F)F)ccn4)cc3)c3c(N)ncc(c32)/C=C/CN2CCN[C@H](C2)C(=O)N1 [Example 142]	500 to 10000 nM
< 5 nM	< 5 nM	< 100 nM	< 100 nM	C[C@@H]1CC(=O)N[C@@H]2CCC[C@H](C2)n2nc(-c3ccc(C(=O)Nc4cc(C(F)(F)F)ccn4)cc3)c3c(N)ncc(c32)/C=C/CN1 [Example 160]	100 to 500 nM
< 5 nM	< 5 nM	< 100 nM	< 100 nM	C[C@@H]1CCn2nc(-c3ccc(Oc4ccccc4)cc3)c3c(N)ncc(c32)/C=C/CCCCCC(=O)N1 [Example 173]	500 to 10000 nM
< 5 nM	< 5 nM	< 100 nM	< 100 nM	Nc1ncc2c3c1c(-c1ccc(C(=O)Nc4cc(C(F)(F)F)ccn4)cc1)nn3[C@@H]1CCC[C@H](C1)NC(=O)CCCC[C@@H](O)/C=C/2 [Example 12]	500 to 10000 nM
< 5 nM	< 5 nM	< 100 nM	< 100 nM	Nc1ncc2c3c1c(-c1ccc(C(=O)Nc4cc(C(F)(F)F)ccn4)cc1)nn3[C@@H]1CCC[C@H](C1)NC(=O)CCCCCC/C=C/2 [Example 16]	< 100 nM
< 5 nM	< 5 nM	< 100 nM	< 100 nM	C[C@@H]1CCn2nc(-c3ccc(C(=O)Nc4cc(C(F)(F)F)ccn4)cc3)c3c(N)ncc(c32)/C=C/C[C@H](C)OCCC(=O)N1 [Example 73]	100 to 500 nM
< 5 nM	< 5 nM	100 to 1000 nM	< 100 nM	CN1C/C=C/c2cnc(N)c3c(-c4ccc(C(=O)Nc5cc(C(F)(F)F)ccn5)cc4)nn(c23)[C@@H]2CCCN(C2)C(=O)CCCC1 [Example 82]	500 to 10000 nM
< 5 nM	< 5 nM	< 100 nM	< 100 nM	CN1CC/C=C/c2cnc(N)c3c(-c4ccc(C(=O)Nc5cc(C(F)(F)F)ccn5)cc4)nn(c23)[C@@H]2CCC[C@H](C2)C(=O)NCC1 [Example 5]	100 to 500 nM
5 to 50 nM	50 to 500 nM	100 to 1000 nM	100 to 1000 nM	Nc1ncc2c3c1c(-c1ccc(C(=O)Nc4cc(C(F)(F)F)ccn4)cc1)nn3[C@@H]1CCC[C@H](C1)C(=O)NCC/C=C\C2 [Example 86]	500 to 10000 nM
5 to 50 nM	5 to 50 nM	< 100 nM	< 100 nM	Nc1ncc2c3c1c(-c1ccc(C(=O)Nc4cc(C(F)(F)F)ccn4)cc1)nn3[C@@H]1CCC[C@H](C1)NC(=O)CCCC(F)(F)/C=C/2 [Example 138]	500 to 10000 nM
